{
  "source": "paper PMC11204543",
  "about": "“Halenaquinol Blocks Staphylococcal Protein A Anchoring on Cell Wall Surface by Inhibiting Sortase A in Staphylococcus aureus” (Marine Drugs, 2024)",
  "key": {"S. aureus ATCC6538p": {"system": "S. aureus ATCC6538p", "assay": "Antibacterial activity (CLSI broth dilution MIC)", "type": "cell-based", "conditions": "Staphylococcus aureus, ATCC6538P, 12 h", "protocol": "(§1) The SrtA inhibitory activity of compounds 1–6, along with that of a known SrtA inhibitor, quercetin [24], was evaluated in vitro using a fluorescence-based enzymatic assay. Recombinant SrtA from S. aureus ATCC6538p was expressed in Escherichia coli and was purified using nickel affinity chromatography. The cleavage of a synthetic peptide substrate by the SrtA enzyme emitted fluorescence, which was then measured. Table 1 presents the half maximal inhibitory concentration (IC50) values calculated from SrtA inhibition rates. […] As SrtA inhibitors act as anti-infective agents by disrupting bacterial pathogenesis without affecting microbial viability, minimum inhibitory concentration (MIC) values were examined to determine their effects on bacterial cell growth.\nAn assessment of the antibacterial properties of the isolated compounds was conducted in accordance with the protocols provided by the Clinical and Laboratory Standard Institute (CLSI). The S. aureus ATCC6538p strain was cultivated overnight at 37 °C in Mueller–Hinton broth (MHB, BD Difco, Sparks, MD, USA). Subsequently, it was harvested using centrifugation, rinsed with sterilized deionized water, and adjusted to the optical density of a 0.5 McFarland standard (625 nm). Test compounds, initially dissolved in DMSO, were further diluted with MHB to achieve a range of 2-fold serial dilutions from 0.25 to 128 μg/mL (maintaining a final DMSO concentration of 1%). In a 96-well plate, 90 μL of the MHB containing the test compound were combined with 10 μL of broth inoculated with the bacterium (final bacterial concentration: 5 × 10^5 cfu/mL). Following a 12 h incubation at 37 °C, the MICs were determined as the lowest concentration at which bacterial growth was inhibited. Ampicillin (Duchefa, Amsterdam, The Netherlands) served as the reference standard."}, "[1]": {"biological_target": "T1, Recombinant SrtA from S. aureus ATCC6538p (Staphylococcus aureus, UniProt Q2FV99)", "T1 construct": "no tag is named in the print; made in house; host or cells: Escherichia coli", "T1 sequence (Q2FV99 whole entry)": "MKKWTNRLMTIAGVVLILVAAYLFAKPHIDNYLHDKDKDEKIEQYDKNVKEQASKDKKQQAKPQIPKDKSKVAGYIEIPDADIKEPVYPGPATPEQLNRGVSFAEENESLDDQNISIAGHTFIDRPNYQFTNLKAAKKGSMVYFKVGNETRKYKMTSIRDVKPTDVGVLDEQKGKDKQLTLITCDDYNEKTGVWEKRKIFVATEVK", "assay": "SrtA inhibition assay (fluorescence-based enzymatic assay, Abz-LPETG-Dnp substrate)", "type": "biochemical", "protocol": "as §1\nTo determine the type of inhibition, kinetic studies were performed with halenaquinol at IC50 or twofold IC50 based on a Lineweaver and Burk plot (Figure 2A). Inhibitor constants were obtained by a Dixon plot (Figure 2B). […] Moreover, the binding of halenaquinol to SrtA was reversible because the enzyme activity was recovered by dialysis, excluding the possible existence of a covalent bond between inhibitor and enzyme.\nThe recombinant SrtA protein from S. aureus ATCC6538p was prepared using a previously described method. Each reaction comprised a 100 μL mixture containing a reaction buffer (50 mM Tris-HCl pH 7.5, 150 mM NaCl, and 5 mM CaCl2), 250 ng of synthetic fluorescent peptide substrate (Abz-LPETG-Dnp), 20 μg of SrtA, and varying concentrations of test samples. DMSO served as the negative control, while quercetin [24] was employed as the positive control. Test sample was dissolved in DMSO and then diluted with reaction buffer to yield a final DMSO concentration of 1%. The reaction mixture was aliquoted into a 96-well plate. Following the addition of SrtA, fluorescence intensity was determined using a microplate reader at excitation and emission wavelengths of 320 nm and 420 nm, respectively. The plate was then incubated for 1 h at 37 °C, and fluorescence intensity was measured. The effect of the inhibitor on SrtA was calculated as a percentage relative to the DMSO-treated control. The percentage of SrtA inhibition was calculated using the following equation: {1 − (Difference value of the test compound/Difference value of a negative control)} × 100. A 12-point, twofold serial dilution dose–response assay was performed independently in triplicate. The resultant dose–response concentration range was 128 to 0.1 μg/mL of inhibitor. Data were scaled to internal controls, and a four-parameter logistic model (SigmaPlot ver. 10.0) was used to fit the measured data and determine the IC50 values. In order to investigate the inhibition type and inhibition constant (Ki) values of halenaquinol, SrtA enzyme activity was monitored in various concentrations of substrate in the absence and presence of halenaquinol. All reactions were repeated three times and enzyme kinetics were evaluated using Lineweaver–Burk and Dixon plots."}, "[2]": {"system": "SpA anchoring on cell wall surface of S. aureus Newman", "assay": "SpA cell wall surface anchoring after trypsin removal, Western blot with anti-SpA antibody", "type": "cell-based, Staphylococcus aureus", "conditions": "trypsin-treated wild type, 1 h", "description": "The anchoring of SpA on the cell-wall surface in S. aureus was measured using Western blot analysis with monoclonal anti-SpA antibody (Figure 4). […] Then, trypsin-treated wild-type S. aureus cells were incubated in medium containing an SrtA inhibitor, halenaquinol, over a concentration range of 1-to-4 times the IC50 values.\nThe effect of the test compound on the in vivo inhibition of S. aureus SrtA was investigated by quantifying the abundance of SpA, catalyzed by the transpeptidation of SrtA on the bacterial surface [26]. […] For this study, S. aureus Newman (wild-type), a human clinical isolate, and its isogenic srtA-deletion mutant (ΔsrtA) were utilized [6, 37]. These strains were inoculated into 5 mL of TSB and incubated for 16 h at 37 °C with shaking. Cultures were then diluted 1:100 into TSB and were grown until the OD600 reached approximately 0.5. Cells from a 10 mL culture were harvested, rinsed with phosphate-buffered saline (PBS, Sigma–Aldrich), suspended in 5 mL of PBS containing 0.2 mg/mL trypsin (Sigma-Aldrich), incubated at 37 °C with shaking for 1 h, and washed with PBS. Subsequently, the cells were incubated in 5 mL of TSB containing 1 mM phenylmethylsulfonyl fluoride (PMSF), with the test compound at 37 °C with shaking for 1 h. Negative control groups were treated with DMSO solvent instead of the test compound. Then, aliquots (1 mL) were removed, and the cells were harvested and stored at −80 °C.\nS. aureus cells, prepared as described above, were suspended in 1 mL of ice-cold PBS containing 1 mM PMSF. A 1% (w/v) solution of Sulfo-NHS-SS-Biotin was prepared, and it was added (100 μL) to 1 mL of cells, resulting in a final concentration of 1.5 mM Sulfo-NHS-SS-Biotin. The cells were then incubated with gentle shaking at 80 rpm for 2 h on ice and were collected using centrifugation (4000× g, 5 min, 4 °C). To halt the biotinylation reaction, cells were washed three times with 1 mL of ice-cold PBS containing 500 mM glycine. Next, the cells were suspended in 500 μL of lysis buffer containing 100 μg/mL lysostaphin (Sigma–Aldrich) and 2 mM PMSF. […]"}, "[3]": {"system": "SpA surface display on S. aureus Newman", "assay": "Immunofluorescence microscopy of SpA surface display", "type": "cell-based, Staphylococcus aureus", "conditions": "8 × IC50 (111.52 μM)", "protocol": "Figure 5 Fluorescence microscopy images of SpA surface display. […] BF identifies the bright-field microscopy view of fluorescence microscopy images. Scale bar, […].\nThe surface display of SpA was visualized following established procedures. A solution of 0.01% poly-L-lysine (Sigma-Aldrich) was added to each well of an 8-well glass chamber slide (SPL) and incubated at 25 °C for 5 min to coat the slide. After washing each well with distilled water and ensuring complete drying, 1 mL of cells, prepared as described above for the re-expression of the cell surface protein, was suspended in PBS containing 0.05% Tween 80 (PBST) and was thoroughly vortexed. A total of 250 μL of suspension was removed and incubated at 25 °C for 20 min with 250 μL of PBS (2.4% paraformaldehyde, 0.006% glutaraldehyde, and 0.05% Tween 80). The fixed cells were washed twice with PBST, and 150 μL of cells were added to the coated slide and incubated at 25 °C for 5 min. […] After washing seven times, anti-fade fluorescence mounting medium (Abcam, Cambridge, UK) was added. […] Images were captured using AiryScan fluorescence detectors and a transmitted light detector (T-PMT) under 10× scan zoom, bidirectional scan, 4× averaging. All the images were analyzed in ZEN 2.1 software (Carl Zeiss)."}},
  "note": "“And” between values parts separate entries of the source, which are not always exact repeats. Equal entries are not always repeated. “Also recorded” adds a separate entry of the source.",
  "data": [
    {"smiles": "C[C@@]12CCC(=O)c3coc(c31)C(=O)c1cc3c(O)ccc(O)c3cc12", "note": "[Compound 2, halenaquinol]", "values": [
      {"measurement": "MIC", "setting": "S. aureus ATCC6538p", "result": "383 µM and > 128 µg/mL"},
      {"measurement": "Ki", "setting": "[1]", "result": 9.55, "unit": "µM"},
      {"measurement": "type of inhibition", "setting": "[1]; Lineweaver-Burk plot at IC50 or twofold IC50", "result": "mixed inhibitor"},
      {"measurement": "IC50", "setting": "[1]; SrtA IC50, recombinant SrtA from S. aureus ATCC6538p, mean ± SD (n = 3)", "result": 13.9, "unit": "µM"},
      {"measurement": "reversibility of binding to SrtA", "setting": "[1]; enzyme activity recovered by dialysis", "result": "reversible"},
      {"measurement": "SrtA inhibitory potency relative to halenaquinol sulfate", "setting": "[1]; ratio of IC50 values", "result": "approximately 9.2 times"},
      {"measurement": "anchoring of SpA on cell wall surface", "setting": "[2]; 1 × IC50 (13.94 μM)", "result": "no significant difference from the wild type"},
      {"measurement": "reduction of SpA anchoring", "setting": "[2]; 2 × IC50 (27.88 μM)", "result": "approximately 53%"},
      {"measurement": "reduction of SpA anchoring", "setting": "[2]; 4 × IC50 (55.76 μM)", "result": "~85", "unit": "%"},
      {"measurement": "SpA surface display / inhibition of SpA anchoring", "setting": "[3]", "result": "comparable to those for an srtA-deletion mutant; also recorded: significantly reduced"}
    ]}
  ]
}
